Earlier results in patent US10159658B2, “Compositions comprising statins, biguanides and further agents for reducing cardiometabolic risk” (ELCELYX THERAPEUTICS, INC., priority 2011, dated 2018).

System: atherosclerotic plaque volume
Settings: diabetics; PERISCOPE, Nissen et al. JAMA 2008

CCC1=C(C)CN(C(=O)NCCc2ccc(S(=O)(=O)NC(=O)N[C@H]3CC[C@H](C)CC3)cc2)C1=O [Glimepiride]
change of atherosclerotic plaque volume over time: 0.73%
